{"source": "patent US20260034192A1", "about": "(University of Saskatchewan, priority 2022, published 2026)", "key": {"[1]": {"system": "Hereford crossbred heifers", "test": "Cetrorelix pre-treatment before kisspeptin-10 in low-progesterone heifer model (Example 1)", "type": "in vivo, cattle", "method": "Methods: The human Kisspeptin-10 (hKP-10) peptide (YNWNSFGLRF-NH2; SEQ ID NO: 1) was custom synthetized at >95% of purity (MW: 1318.44 g/mol) by GenScript USA Inc, Piscataway, NJ, USA. The sequence is based on the predicted C-terminal region (112-121-NH2) of human metastin (Gen Bank accession #AY117143) and has been previously used in cattle. The peptide was previously tested for solubility and was dissolved in ultrapure water at 10 mg/mL.\nThe heifers were maintained in outdoor pens at the University of Saskatchewan Goodale Research Farm (52° north and 106° west). Heifers were fed barley silage and had hay and water ad libitum. A mineral salt block was available to heifers throughout the study period. All procedures were performed in accordance with Canadian Council on Animal Care and were approved by the University of Saskatchewan Protocol Review Committee.\nImmediately after ultrasound examination, heifers were given PGF2a twice at an interval of 12-hours. The low-progesterone bovine model described previously (Leonardi et al. 2019) was used to test the hypothesis. Briefly, the ovaries were examined daily by ultrasonography to detect ovulation. Three days after ovulation, follicles ≥5 mm in diameter in both ovaries were ablated by transvaginal ultrasound-guided follicle aspiration, inducing the emergence of new follicular wave 1.5 days after the procedure (Bergfelt et al. 1994). After follicular ablation, a progesterone device was placed in the vagina (CIDR; Zoetis). The day of wave emergence (Day 0) was defined as the day when the follicle of wave was first recorded (4 to 5 mm in diameter) with concurrent increase in diameter. Heifers were given PGF2α im on Days 3.5 and 4 (i.e., 8 and 8.5 days after ovulation) to cause luteolysis, however, the CIDR devices were left in place until Day 12 to maintain a low-progesterone milieu sufficient to prevent spontaneous ovulation. On Day 6, an indwelling jugular catheter was placed as described (Bergfelt et al. 1997) and heifers were assigned randomly to three groups (n=5 per group): 1) 3 iv doses of 15 mg human kisspeptin-10 at 1 h intervals (Kp10 group), 2) pretreatment with single im dose of Cetrorelix acetate (20 μg/Kg of body weight, GnRH antagonist—Sigma #C5249 diluted in 5% D-Manitol w/v, Sigma #M4125) followed 3 h later with 3 iv doses of 15 mg human kisspeptin-10 at 1 h intervals (Cetrorelix group), or 3) 3 iv doses of normal saline at 1 h intervals (Control group). Following treatment (on Day 6), ovarian ultrasound examinations were performed daily until the end of the experiment to detect ovulation of the extant dominant follicle (i.e., dominant follicle present at the time of treatment) or of the dominant follicle originating from a subsequent wave. The progesterone device was withdrawn on Day 12 (i.e., thirteen days after insertion) and ultrasound examinations were continued until ovulation was detected.\nBlood samples and hormone assays: Serial blood samples on the day of treatment were collected at 15 minute intervals from −30 to 150 min (0 min=time of first hKP-10 or saline injection) using the indwelling jugular catheter. All blood samples were collected in heparinized tubes (Vacutainer, BD, Franklin Lakes NJ, USA). Immediately after sampling, tubes were centrifuged at 1,500×g for 15 min, and plasma was separated and stored at −20° C.\nThe plasma samples from both experiments were analyzed for LH and progesterone concentration at the University of Wisconsin (Madison, WI, USA) in Dr O. J. Ginther's Research Laboratory. Plasma LH concentrations were measured with a validated radioimmunoassay for cattle (Bolt et al. 1990) with modifications as reported Ginther et al. 1999). Briefly, LH concentrations were measured in duplicate using USDA-bLH-B-6 for ^125I-iodination and for preparing reference standards, and USDA-309-684P as the primary antibody (National Hormone and Pituitary Program, Torrance, CA, USA). […]"}, "[2]": {"system": "pubertal Hereford-cross beef heifers", "test": "Cetrorelix in luteal versus preovulatory phase, hCG ovulation challenge in heifers (Example 6)", "type": "in vivo, cattle", "conditions": "high and low progesterone, 3 mg i/m", "method": "Experimental design: The study was conducted on pubertal Hereford-cross beef heifers (n=24) at the U. Sask. Livestock and Forage Centre of Excellence (LFCE) using a 2×2 factorial design (Table 15). Initial transrectal ultrasonography was performed to confirm post-pubertal or post-partum cyclicity by the presence or absence of a corpus luteum (CL). Animals with a CL were weighed and treated with prostaglandin F2a analog as in Example 4 and monitored by ultrasonography to detect ovulation. Day of ovulation was considered the day of wave emergence (defined as Day 0).\nOn the day of ovulation, heifers were randomized into 4 groups. Those in the preovulatory groups were given prostaglandin on Days 4 and 4.5 of the wave while those in the luteal groups were allowed to maintain the CL (i.e., no prostaglandin treatment). Treatments was given as outlined in Table 16 and schematic time line FIG. 8. Cetrorelix groups were given 3 mg cetrorelix i/m on Day 5. All animals were treated with hCG (Chorulon, 1500 IU, im) on Day 7 of the wave (i.e., 48 hr after Cetrorelix/saline treatment) to determine the ovulatory potential of the dominant follicle.\nBlood samples were taken 24 hr after cetrorelix or no treatment (control groups) for measurement of plasma concentrations of LH and progesterone. Data was analyzed in a similar manner to Example 4."}, "[3]": {"conditions": "Day 6 of wave, low progesterone, Kp10 3 x 15 mg iv, Cetrorelix 20 μg/Kg im 3 h before Kp10"}, "[4]": {"conditions": "Kp10 3 x 15 mg iv, Cetrorelix 20 μg/Kg im 3 h before Kp10"}}, "note": "“And” between values parts separate entries of the source, which are not always exact repeats. Equal values may be shown once. Square brackets hold non-standard residues; d marks the D form. Peptide text beside a SMILES is read from it. dPhe(4-Cl) = N[C@H](Cc1ccc(Cl)cc1)C(=O)O; d2Nal = N[C@H](Cc1ccc2ccccc2c1)C(=O)O; dCit = NC(=O)NCCC[C@@H](N)C(=O)O; d3Pal = N[C@H](Cc1cccnc1)C(=O)O"}
{"smiles": "CC(=O)N[C@H](Cc1ccc2ccccc2c1)C(=O)N[C@H](Cc1ccc(Cl)cc1)C(=O)N[C@H](Cc1cccnc1)C(=O)N[C@@H](CO)C(=O)N[C@@H](Cc1ccc(O)cc1)C(=O)N[C@H](CCCNC(N)=O)C(=O)N[C@@H](CC(C)C)C(=O)N[C@@H](CCCNC(=N)N)C(=O)N1CCC[C@H]1C(=O)N[C@H](C)C(N)=O", "note": "[Cetrorelix, N-acetyl-3-(2-naphthyl)-D-alanyl-4-chloro-D-phenylalanyl-3-(3-pyridyl)-D-alanyl-L-seryl-L-tyrosyl-D-citrullyl-L-leucyl-L-arginyl-L-prolyl-D-alaninamide] (Ac-[d2Nal][dPhe(4-Cl)][d3Pal]SY[dCit]LRP[dA]-NH2)", "values": [{"measurement": "Dominant follicle diameter 24 h after treatment", "setting": "[1]; [3]", "result": "13.38 ± 0.55", "unit": "mm"}, {"measurement": "Dominant follicle diameter 48 h after treatment", "setting": "[1]; [3]", "result": "12.91 ± 0.55", "unit": "mm"}, {"measurement": "Dominant follicle diameter at time of treatment", "setting": "[1]; [3]", "result": "13.01 ± 0.68", "unit": "mm"}, {"measurement": "Emergence of a new follicular wave after treatment", "setting": "[1]; Day 6 of wave, low progesterone, Kp10 3 x 15 mg iv, Cetrorelix single im 20 μg/Kg 3 h before Kp10", "result": "3.40 ± 0.75 days and 3.4 days"}, {"measurement": "Emergence of a new follicular wave after treatment", "setting": "[1]; Day 6 of wave, low progesterone, Kp10 3 x 15 mg iv, Cetrorelix single im 20 μg/Kg 3 h before Kp10, listed as Cetrorelix acetate", "result": "about 3.40±0.75 days"}, {"measurement": "Day of ovulation of new dominant follicles after CIDR removal (Day 12)", "setting": "[1]; Day of follicular wave", "result": 15}, {"measurement": "Heifers in which a new wave emergence occurred", "setting": "[1]; [4]", "result": "5 of 5"}, {"measurement": "Number of ovulations after CIDR removal on Day 12: Extant dominant follicle", "setting": "[1]; [4]", "result": "0/5"}, {"measurement": "Number of ovulations after CIDR removal on Day 12: New dominant follicle", "setting": "[1]; [4]", "result": "5/5"}, {"measurement": "Plasma LH concentration / kisspeptin-induced LH surge", "setting": "[1]; [4]", "result": "suppressed the kisspeptin-induced LH surge"}, {"measurement": "Time by which the dominant follicle entered the regression phase", "setting": "[1]; after kisspeptin and GnRH antagonist treatment", "result": "≤ 72", "unit": "h"}, {"measurement": "Time for which dominant/pre-ovulatory follicle maintains ovulatory potential after cetrorelix treatment", "setting": "[2]", "result": "at least 48 hr"}]}
